Source: US7083799B1, “No-synthase inhibitors” (L'Oreal, priority 1995, dated 2006)

Assays:
[1] = tested on: mouse ear oedema induced by 0.01% 2-(5,6,7,8-tetrahydro-5,5,8,8-tetramethyl-2-naphthyl)-6-benzo[b]thiophenecarboxylic acid; assay: mouse ear oedema test (ear thickness) induced by topical application of an irritant retinoid; type: in vivo, mouse (Balb/C); conditions: curative
Experimental: This increase in the thickness of the mouse ear appears to be due to an increase in the thickness of the epidermis and to the appearance of a dermal oedema. This response can therefore be easily measured with the aid of an apparatus, such as the oditest.
(§1) 5 (=group 2) of the 10 mice thus treated are made to ingest orally N^G-nitro-L-arginine methyl ester in drinking water from t=0 and once per day for 11 days (N^G-nitro-L-arginine methyl ester concentration of 1 mg/ml, that is to say 170±40 mg/kg per day).
[…] The 5 mice which were not treated with […] constitute group 1.

[2] = tested on: mouse ear; conditions: in vivo
Experimental: Next, there is topically applied to the ear of these 5 mice previously treated with N^G,N^G-dimethylarginine (group A) and to the ear of 5 untreated mice (group B), at time t=0, 20 μl of an acetone solution comprising 0.01% by weight of 2-(5,6,7,8-tetrahydro-5,5,8,8-tetramethyl-2-naphthyl)-6-benzo[b]thiophenecarboxylic acid. The oedematous response is quantified by measurement of the thickness of the ear.

[3] = tested on: mouse ear oedema induced by 0.01% 2-(5,6,7,8-tetrahydro-5,5,8,8-tetramethyl-2-naphthyl)-6-benzo[b]thiophenecarboxylic acid; assay: mouse ear oedema test (ear thickness) induced by topical application of an irritant retinoid; type: in vivo, mouse (Balb/C)
[4] = observation of toxicity and weight change in mice given the inhibitor orally; type: in vivo, mouse (Balb/C); conditions: oral in drinking water 1 mg/ml (170±40 mg/kg per day), once per day for 11 days
Experimental: as §1

[5] = 1% by weight, topical from 6 hours after the irritant, once per day for 5 days
[6] = gel 1% by weight, topical once per day for 4 days before the irritant, preventive, group A vs group B
[7] = 5%, topical from 6 hours after the irritant, once per day for 5 days, curative

CNC(=N)NCCC[C@H](N)C(=O)O [L-NMMA, N^G-monomethyl-L-arginine]
inhibition of the ear oedema [1, 5]: 28%
reduction of the area under the curve of the response induced by the irritant product (ear thickness vs days) [1, 5]: 51%
increase in the thickness of the mouse ear (maximum of group 1 without inhibitor = 100%) ([1]; gel 1% by weight, topical from 6 hours after the irritant, once per day for 5 days, after 5 days): 72%

CN(C)C(N)=NCCC[C@H](N)C(=O)O [N^G,N^G-dimethylarginine]
increase in the thickness of the ear by the inhibitor gel alone [2]: No increase
reduction of the amplitude of the response induced by the irritant product [3, 6]: 24%
reduction of the area under the curve of the response induced by the irritant product (ear thickness vs days) [3, 6]: 50%

COC(=O)[C@@H](N)CCCNC(=N)N[N+](=O)[O-] [N^G-nitro-L-arginine methyl ester, methyl ester of N^G-nitro-L-arginine]
change in weight [4]: not modified
sign of toxicity [4]: no sign of toxicity
increase in the thickness of the mouse ear (maximum of group 1 without inhibitor = 100%) ([1]; oral in drinking water 1 mg/ml (170±40 mg/kg per day) from t=0, once per day, after 5 days of treatment): 70%
inhibition of the ear oedema ([1]; oral in drinking water 1 mg/ml (170±40 mg/kg per day) from t=0, after 5 days): 30%

CN=C(NC)NCCC[C@H](N)C(=O)O [SDMA, N^G,N^G-dimethyl-L-arginine, reference compound]
inhibition of the ear oedema [1, 5]: 7%
reduction of the area under the curve of the response induced by the irritant product (ear thickness vs days) [1, 5]: 27%

C[N+](C)(C)CC(=O)O [betaine, reference compound]
inhibition of the ear oedema [1, 5]: 9%
reduction of the area under the curve of the response induced by the irritant product (ear thickness vs days) [1, 5]: 24%
inhibition of the ear oedema [3, 7]: 16%
reduction of the area under the curve of the response induced by the irritant product (ear thickness vs days) [3, 7]: 13%
